According to patent publication US9150632B2 (Indiana University Research and Technology Corporation, priority 2009, dated 2015):
Non-standard residues stand in square brackets, D forms with d. Residues, ends and D or L forms follow the SMILES beside them. No end group written: not given here. Aib = CC(C)(N)C(=O)O

Assays:
[1] = pH 7
[2] = Body weight, body composition and food intake in diet-induced obesity (DIO) mice; type: in vivo
Procedure: […] 6 mice per group with initial average body weight of 44 g were tested. Body weight, body composition, food intake, and blood glucose levels were determined periodically.
Body weight was measured before injection and at 1, 3, 5, and 7 days post-injection.
Changes in body weight of and food intake by the mice were measured 0, 1, 3, 5, 7, 8, 10, 12, and 14 days after injection. Blood glucose levels of the mice were monitored throughout the 14 days. Glucose tolerance tests were performed by injecting a 25% glucose in saline solution 1 hour or 24 hours after administration of the acylated or pegylated peptide and measuring blood glucose levels at −60, 0, 15, 30, 60, or 120 min after the glucose injection.
The acylated glucagon analogs were as follows:
C57BI/6 mice were obtained from Jackson Laboratories and fed a diabetogenic diet from Research Diets, a high sucrose diet with 58% kcal from fat. Mice were single or group-housed on a 12:12-h light-dark cycle at 22° C. with free access to food and water. All studies were approved by and performed according to the guidelines of the Institutional Animal Care and Use Committee of the University of Cincinnati.
Whole body composition (fat and lean mass) was measured using NMR technology (EchoMRI, Houston, Tex.).
The peptides were administered daily for two weeks to 11 groups of 8 C57Bl/6 mice by subcutaneous injection at a dose of 10 or 30 nmol/kg. […]

[3] = molecular target: T1, glucagon receptor (Homo sapiens, UniProt P47871); test: Functional assay-cAMP synthesis, luciferase reporter in HEK293 cells, glucagon receptor; type: cell-based; details: for Glucagon Receptor % relative activity: activity relative to the native hormone at the indicated receptor; for EC50: cAMP induction, in vitro, as in Example 14
T1 construct: expressed in transfected cells; host or cells: HEK293

[4] = molecular target: T2, GIP receptor (Homo sapiens, UniProt P48546); test: Functional assay-cAMP synthesis, luciferase reporter in HEK293 cells, GIP receptor; type: cell-based; details: for GIP Receptor % relative activity: activity relative to the native hormone at the indicated receptor; for EC50: cAMP induction, in vitro, as in Example 14
T2 construct: expressed in transfected cells; host or cells: HEK293
T2 sequence (P48546 22-466): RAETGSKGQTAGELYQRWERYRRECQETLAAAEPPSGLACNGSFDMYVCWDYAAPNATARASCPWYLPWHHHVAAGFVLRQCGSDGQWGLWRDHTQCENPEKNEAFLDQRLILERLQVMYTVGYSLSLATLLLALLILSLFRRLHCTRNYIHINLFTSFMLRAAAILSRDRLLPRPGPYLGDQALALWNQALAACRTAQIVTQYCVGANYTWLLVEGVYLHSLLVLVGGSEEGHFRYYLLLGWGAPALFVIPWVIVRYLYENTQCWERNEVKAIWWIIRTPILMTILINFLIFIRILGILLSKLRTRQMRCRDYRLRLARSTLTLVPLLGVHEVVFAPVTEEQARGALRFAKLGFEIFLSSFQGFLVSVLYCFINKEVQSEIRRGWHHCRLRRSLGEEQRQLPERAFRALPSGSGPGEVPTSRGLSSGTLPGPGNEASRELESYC

[5] = molecular target: T3, GLP-1 receptor (Homo sapiens, UniProt P43220); details: activity relative to the native hormone at the indicated receptor
Procedure: (§1) Peptide absorbance readings were obtained from UV Absorbance measurements at 280 nm on a Genesys 6 Spectrophotometer (Thermo Electron Corporation). Beer's Law was used to calculate solution concentrations based on the number of tryptophan and tyrosine residues in each analog. At the end of the incubation, 100 μL LucLite luminescence substrate reagent was added to each well, the plate sealed and shaken, and placed into a Wallac Trilux luminescence counter for cAMP detection.
(§2) HEK293 cells were co-transfected with the GcgR or GLP-1R cDNAs and a luciferase reporter gene-linked to a cAMP response element (CRE). […] The plate was incubated for 10 min in the dark and light output was quantified on a MicroBeta1450 liquid scintillation counter (Perkin-Elmer, Wellesley, Mass.).

[6] = molecular target: T3, GLP-1 receptor; test: cell-based
Procedure: as §1, §2

T1 sequence (P47871 26-477): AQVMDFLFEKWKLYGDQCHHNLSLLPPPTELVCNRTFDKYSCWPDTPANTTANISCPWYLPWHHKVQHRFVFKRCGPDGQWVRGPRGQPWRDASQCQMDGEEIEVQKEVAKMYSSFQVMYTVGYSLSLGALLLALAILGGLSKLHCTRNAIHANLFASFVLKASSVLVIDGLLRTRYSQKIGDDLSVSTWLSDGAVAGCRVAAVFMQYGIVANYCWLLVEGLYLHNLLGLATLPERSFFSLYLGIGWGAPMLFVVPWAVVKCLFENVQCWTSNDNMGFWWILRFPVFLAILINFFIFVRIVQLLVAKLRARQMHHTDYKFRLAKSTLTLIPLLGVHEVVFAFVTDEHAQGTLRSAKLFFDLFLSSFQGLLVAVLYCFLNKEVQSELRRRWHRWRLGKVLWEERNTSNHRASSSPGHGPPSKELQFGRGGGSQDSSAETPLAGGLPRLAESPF
T3 sequence (P43220 24-463, species assumed): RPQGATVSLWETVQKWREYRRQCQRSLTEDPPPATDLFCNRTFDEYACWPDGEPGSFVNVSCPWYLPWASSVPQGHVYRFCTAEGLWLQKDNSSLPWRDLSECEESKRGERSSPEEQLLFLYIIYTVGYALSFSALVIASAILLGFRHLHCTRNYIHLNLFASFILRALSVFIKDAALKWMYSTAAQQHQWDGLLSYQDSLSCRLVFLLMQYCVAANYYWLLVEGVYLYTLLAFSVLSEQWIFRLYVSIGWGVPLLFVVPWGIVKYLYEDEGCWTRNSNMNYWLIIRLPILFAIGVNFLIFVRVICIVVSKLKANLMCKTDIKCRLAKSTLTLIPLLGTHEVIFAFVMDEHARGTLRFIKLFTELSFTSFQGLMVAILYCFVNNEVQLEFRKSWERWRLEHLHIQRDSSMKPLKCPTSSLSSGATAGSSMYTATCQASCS

Row | Compound | Glucagon Receptor % relative activity [3] | EC50 [3] | GIP Receptor % relative activity [4] | EC50 [4] | GLP-1 Receptor % relative activity [5] | EC50 [6] | also measured
1 | Glucagon, Cys17PEG5K: Glucagon Cys17(1-29) reacted with mPEG-Mal-5000 |  |  |  |  |  |  | Percent Soluble [1]: 94%
2 | Peptide U: SEQ ID NO: 1 with Glu16, Gln17, Ala18, Lys20, Glu21, Ile23, Cys24 with 20-kd pegylation, no AIB2, no lactam (HSQGTFTSDYSKYLDEQAAKEFIC(PEG 20 kDa)WLMNT) |  |  |  |  |  |  | body weight lowering ([2]; each day for one week at 50 nmol/kg s.c.): -13.71 ± 0.92 g
3 | CC[C@H](C)[C@H](NC(=O)[C@H](CO)NC(=O)[C@H](Cc1ccc(O)cc1)NC(=O)[C@H](CC(=O)O)NC(=O)[C@H](CO)NC(=O)[C@@H](NC(=O)[C@H](Cc1ccccc1)NC(=O)[C@@H](NC(=O)CNC(=O)[C@H](CCC(N)=O)NC(=O)C(C)(C)NC(=O)[C@@H](N)Cc1c[nH]cn1)[C@@H](C)O)[C@@H](C)O)C(=O)N[C@@H](Cc1ccc(O)cc1)C(=O)N[C@@H](CC(C)C)C(=O)N[C@@H](CC(=O)O)C(=O)NC(C)(C)C(=O)N[C@@H](CCC(N)=O)C(=O)N[C@@H](C)C(=O)N[C@@H](C)C(=O)N[C@@H](CCCCN)C(=O)N[C@@H](CCC(=O)O)C(=O)N[C@@H](Cc1ccccc1)C(=O)N[C@H](C(=O)N[C@@H](CC(N)=O)C(=O)N[C@@H](Cc1c[nH]c2ccccc12)C(=O)N[C@@H](CC(C)C)C(=O)N[C@@H](CCSC)C(=O)N[C@@H](CC(N)=O)C(=O)NCC(=O)NCC(=O)N1CCC[C@H]1C(=O)N[C@@H](CO)C(=O)N[C@@H](CO)C(=O)NCC(=O)N[C@@H](C)C(=O)N1CCC[C@H]1C(=O)N1CCC[C@H]1C(=O)N1CCC[C@H]1C(=O)N[C@@H](CO)C(=O)N[C@@H](CCCCN)C(N)=O)C(C)C [mt-361] (H-H[Aib]QGTFTSDYSIYLD[Aib]QAAKEFVNWLMNGGPSSGAPPPSK-NH2) | 3.61% | 1770 pM | 0.29% | 1050 pM | 226.35% | 10.9 pM | 
4 | HXQGTFTSDYSKYLDEQAAKEFICWLMNT-NH2 [Chimera-2-AIB^2 Cys^24-40 kD] |  |  |  |  |  |  | ability to lower body weight ([2]; i.p. 15 or 70 nmol/kg, 7 days post-injection): comparable ability to lower body weight
5 | CC[C@H](C)[C@H](NC(=O)[C@H](Cc1ccccc1)NC(=O)[C@H](CCC(=O)O)NC(=O)[C@H](CCCCN)NC(=O)[C@H](C)NC(=O)[C@H](C)NC(=O)[C@H](CCC(N)=O)NC(=O)[C@H](CCC(=O)O)NC(=O)[C@H](CC(=O)O)NC(=O)[C@H](CC(C)C)NC(=O)[C@H](Cc1ccc(O)cc1)NC(=O)[C@H](CCCCN)NC(=O)[C@H](CO)NC(=O)[C@H](Cc1ccc(O)cc1)NC(=O)[C@H](CC(=O)O)NC(=O)[C@H](CO)NC(=O)[C@@H](NC(=O)[C@H](Cc1ccccc1)NC(=O)[C@@H](NC(=O)CNC(=O)[C@H](CCC(N)=O)NC(=O)C(C)(C)NC(=O)[C@@H](N)Cc1c[nH]cn1)[C@@H](C)O)[C@@H](C)O)C(=O)N[C@@H](C)C(=O)N[C@@H](Cc1c[nH]c2ccccc12)C(=O)N[C@@H](CC(C)C)C(=O)N[C@@H](CCSC)C(=O)N[C@@H](CC(N)=O)C(=O)NCC(=O)NCC(=O)N1CCC[C@H]1C(=O)N[C@@H](CO)C(=O)N[C@@H](CO)C(=O)NCC(=O)N[C@@H](C)C(=O)N1CCC[C@H]1C(=O)N1CCC[C@H]1C(=O)N1CCC[C@H]1C(=O)N[C@@H](CO)C(=O)N[C@@H](CCCCN)C(N)=O [mt-363] | 7.76% | 823 pM | 0.73% | 425 pM | 671.66% | 3.7 pM | 
